Data on 15 compounds can be found in patent US20230340011A1 (Asteroid Therapeutics, priority 2022, published 2023).

The IC50 is the midpoint of a concentration-inhibition curve. Read a low IC50 as inhibition by little substance.

The assay addresses SREBP-2 (Homo sapiens (Human), UniProt Q12772). Put plainly: In vitro assay SREBP-2: PathHunter U2OS SREBP-2 Nuclear Translocation Cell Line, U18666A-stimulated. To be noted: PathHunter U2OS SREBP-2 nuclear translocation cells, U18666A 10 μM, overnight (16 hours). In kind it is cell-based.
Consider `CCN(CCc1ccccn1)C(=O)CC[C@@H](C)[C@H]1CC[C@H]2[C@@H]3CC=C4C[C@@H](O)CC[C@]4(C)[C@H]3CC[C@]12C` [Example 541, (4R)-4-[(1R,3aS,3bS,7S,9aR,9bS,11aR)-7-hydroxy-9a,11a-dimethyl-1H,2H,3H,3aH,3bH,4H,6H,7H,8H,9H,9aH,9bH,10H,11H,11aH-cyclopenta[a]phenanthren-1-yl]-N-ethyl-N-[2-(pyridin-2-yl)ethyl]pentanamide], for which the IC50 is < 250 nM. With `C[C@H](Oc1cccnc1CO)[C@H]1CC[C@H]2[C@@H]3CC=C4C[C@@H](O)CC[C@]4(C)[C@H]3CC[C@]12C` [Example 434, (3S,8S,9S,10R,13S,14S,17S)-17-((S)-1-((2-(hydroxymethyl)pyridin-3-yl)oxy)ethyl)-10,13-dim ethyl-2,3,4,7,8,9,10,11,12,13,14,15,16,17-tetradecahydro-1H-cyclopenta[a]phenanthren-3-ol], the IC50 lay within 250 to 1000 nM. `CC[C@@H]1NC[C@@H]2CON(C(=O)CC[C@@H](C)[C@H]3CC[C@H]4[C@@H]5CC=C6C[C@@H](O)CC[C@]6(C)[C@H]5CC[C@]34C)[C@@H]21` [Example 48, (R)-1-((3aS,6S,6aS)-6-ethylhexahydro-1H-pyrrolo[3,4-c]isoxazol-1-yl)-4-((3S,8S,9S,10R,13R,14S,17R)-3-hydroxy-10,13-dimethyl-2,3,4,7,8,9,10,11,12,13,14,15,16,17-tetradecahydro-1H-cyclopenta[a]phenanthren-17-yl)pentan-1-one]: the IC50 lay within 250 to 1000 nM. For `C[C@H](OC(=O)C(=O)N(C)C)[C@H]1CC[C@H]2[C@@H]3CC=C4C[C@@H](O)CC[C@]4(C)[C@H]3CC[C@]12C` [Example 35, (S)-1-((3S,8S,9S,10R,13S,14S,17S)-3-hydroxy-10,13-dimethyl-2,3,4,7,8,9,10,11,12,13,14,15,16,17-tetradecahydro-1H-cyclopenta[a]phenanthren-17-yl)ethyl 2-(dimethylamino)-2-oxoacetate], the IC50 fell in the range of 250 to 1000 nM. As to `Cc1noc(OC2CCN(C(=O)CC[C@@H](C)[C@H]3CC[C@H]4[C@@H]5CC=C6C[C@@H](O)CC[C@]6(C)[C@H]5CC[C@]34C)CC2)n1` [Example 506, (R)-4-((3S,8S,9S,10R,13R,14S,17R)-3-hydroxy-10,13-dimethyl-2,3,4,7,8,9,10,11,12,13,14,15,16,17-tetradecahydro-1H-cyclopenta[a]phenanthren-17-yl)-1-(4-((3-methyl-1,2,4-oxadiazol-5-yl)oxy)piperidin-1-yl)pentan-1-one], the IC50 was < 250 nM. Take `CCC1(O)CCN(C(=O)C[C@@H](C)[C@H]2CC[C@H]3[C@@H]4CC=C5C[C@@H](O)CC[C@]5(C)[C@H]4CC[C@]23C)CC1` [Example 592, (R)-1-(4-ethyl-4-hydroxypiperidin-1-yl)-3-((3S,8S,9S,10R,13R,14S,17R)-3-hydroxy-10,13-dimethyl-2,3,4,7,8,9,10,11,12,13,14,15,16,17-tetradecahydro-1H-cyclopenta[a]phenanthren-17-yl)butan-1-one]: the IC50 was < 250 nM.

As to `CC(C)CC1(O)CCN(C(=O)CC[C@@H](C)[C@H]2CC[C@H]3[C@@H]4CC=C5C[C@@H](O)CC[C@]5(C)[C@H]4CC[C@]23C)CC1` [Example 93, (R)-4-((3S,8S,9S,10R,13R,14S,17R)-3-hydroxy-10,13-dimethyl-2,3,4,7,8,9,10,11,12,13,14,15,16,17-tetradecahydro-1H-cyclopenta[a]phenanthren-17-yl)-1-(4-hydroxy-4-isobutylpiperidin-1-yl) pentan-1-one], the half-maximal inhibitory concentration (IC50) was < 250 nM. The value for `CCOc1cccnc1CC[C@@H](C)[C@H]1CC[C@H]2[C@@H]3CC=C4C[C@@H](O)CC[C@]4(C)[C@H]3CC[C@]12C` [Example 457, (1R,3aS,3bS,7S,9aR,9bS,11aR)-1-[(2R)-4-(3-ethoxypyridin-2-yl)butan-2-yl]-9a,11a-dimethyl-1H,2H,3H,3aH,3bH,4H,6H,7H,8H,9H,9aH,9bH,10H,11H,11aH-cyclopenta[a]phenanthren-7-ol] was < 250 nM.

Consider `C[C@H](CCC(=O)N1CCNCC1)[C@H]1CC[C@H]2[C@@H]3CC=C4C[C@@H](O)CC[C@]4(C)[C@H]3CC[C@]12C` [Example 2, (R)-4-((3S,8S,9S,10R,13R,14S,17R)-3-hydroxy-10,13-dimethyl-2,3,4,7,8,9,10,11,12,13,14,15,16,17-tetradecahydro-1H-cyclopenta[a]phenanthren-17-yl)-1-(piperazin-1-yl) pentan-1-one], for which the IC50 fell in the range of 250 to 1000 nM. On to `C[C@H](CCC(=O)N(C)CC(=O)O)[C@H]1CC[C@H]2[C@@H]3CC=C4C[C@@H](O)CC[C@]4(C)[C@H]3CC[C@]12C` [Example 108, N—((R)-4-((3S,8S,9S,10R,13R,14S,17R)-3-hydroxy-10,13-dimethyl-2,3,4,7,8,9,10,11,12,13,14,15,16,17-tetradecahydro-1H-cyclopenta[a]phenanthren-17-yl)pentanoyl)-N-methylglycine], for which the IC50 was > 10000 nM. The value for `CCC1(O)CCN(C(=O)CC[C@@H](C)[C@H]2CC[C@H]3[C@@H]4CC=C5C[C@@](C)(O)CC[C@]5(C)[C@H]4CC[C@]23C)CC1` [Example 371, (R)-1-(4-ethyl-4-hydroxypiperidin-1-yl)-4-((3S,8S,9S,10R,13R,14S,17R)-3-hydroxy-3,10,13-trimethyl-2,3,4,7,8,9,10,11,12,13,14,15,16,17-tetradecahydro-1H-cyclopenta[a]phenanthren-17-yl)pentan-1-one] was 250 to 1000 nM.

With `Cc1cncc(O[C@@H](C)[C@H]2CC[C@H]3[C@@H]4CC=C5C[C@@H](O)CC[C@]5(C)[C@H]4CC[C@]23C)c1` [Example 432, (3S,8S,9S,10R,13S,14S,17S)-10,13-dimethyl-17-((S)-1-((5-methylpyridin-3-yl)oxy)ethyl)-2,3,4,7,8,9,10,11,12,13,14,15,16,17-tetradecahydro-1H-cyclopenta[a]phenanthren-3-ol], the IC50 is < 250 nM. Turning to `Cc1ccnc(OC[C@@H](C)[C@H]2CC[C@H]3[C@@H]4CC=C5C[C@@H](O)CC[C@]5(C)[C@H]4CC[C@]23C)c1` [Example 442, (1R,3aS,3bS,7S,9aR,9bS,11aS)-9a,11a-dimethyl-1-[(2S)-1-[(4-methylpyridin-2-yl)oxy]propan-2-yl]-1H,2H,3H,3aH,3bH,4H,6H,7H,8H,9H,9aH,9bH,10H,11H,11aH-cyclopenta[a]phenanthren-7-ol], the half-inhibitory concentration (IC50) was < 250 nM. The result for `CCN(CC(=O)O)C(=O)CC[C@@H](C)[C@H]1CC[C@H]2[C@@H]3CC=C4C[C@@H](O)CC[C@]4(C)[C@H]3CC[C@]12C` [Example 109, N-ethyl-N—((R)-4-((3S,8S,9S,10R,13R,14S,17R)-3-hydroxy-10,13-dimethyl-2,3,4,7,8,9,10,11,12,13,14,15,16,17-tetradecahydro-1H-cyclopenta[a]phenanthren-17-yl)pentanoyl)glycine] reads > 10000 nM.

On to `CON(C(=O)CC[C@@H](C)[C@H]1CC[C@H]2[C@@H]3CC=C4C[C@@H](O)CC[C@]4(C)[C@H]3CC[C@]12C)C1CC1` [Example 36, (R)—N-cyclopropyl-4-((3S,8S,9S,10R,13R,14S,17R)-3-hydroxy-10,13-dimethyl-2,3,4,7,8,9,10,11,12,13,14,15,16,17-tetradecahydro-1H-cyclopenta[a]phenanthren-17-yl)-N-methoxypentanamide], for which the concentration for half-maximal inhibition (IC50) is 250 to 1000 nM.
